In patent US20200163913A1 (Shanghai Huali Biomedical Co., Ltd., priority 2017, published 2020):

Tested on: human cervical cancer cell HeLa
Assay: CCK-8 cell proliferation inhibition, HeLa
Format: cell-based
Conditions: Homo sapiens, HeLa, 72 h, read-out: IC50 Hela
Method: (§1) Take more than 90% of live cells for experiments. Cell proliferation inhibition test uses EnoGeneCell™ Counting Kit-8 (CCK-8) cell viability detection kit. Cells are digested and counted to make a cell suspension with a concentration of 1×10^5 cells/mL, 100 μL of cell suspension (1×10^4 cells per well) was added to each well of a 96-well plate; Incubate in a 5% CO2 incubator for 24 hours; add 100 μL of the corresponding drug-containing culture medium to each well, and set a negative control group, a vehicle control group, and a positive control group, with 5 replicates in each group; place the 96-well plate at 37° C.
For CNS(=O)(=O)Oc1cc(/C=C\c2cc(OC)c(OC)c(OC)c2)ccc1OC [Compound A1-4, (Z)-3,4,5-trimethoxy-4′-methoxy-3′-N-methylsulfamate stilbene], the IC50 was 0.317 µM. For COc1ccc(/C=C\c2cc(OC)c(OC)c(OC)c2)cc1OS(=O)(=O)N(C)C [Compound A1-5, (Z)-3,4,5-trimethoxy-4′-methoxy-3′-N,N-dimethylsulfamate stilbene], the IC50 was 14.3 µM. With COc1cc(/C=C\c2ccc(OC(F)F)c(OS(N)(=O)=O)c2)cc(OC)c1OC [Compound A3-1, (Z)-3,4,5-trimethoxy-4′-difluoromethoxy-3′-sulfamate stilbene] the IC50 was 7.82 µM. For COc1cc(/C=C/c2ccc(OC(F)F)c(OS(N)(=O)=O)c2)cc(OC)c1OC [Compound A3-2, (E)-3,4,5-trimethoxy-4′-difluoromethoxy-3′-sulfamate stilbene], the IC50 was 8.42 µM.

Tested on: human lung cancer cell A549
Assay: CCK-8 cell proliferation inhibition, A549
Format: cell-based
Conditions: A549, 72 h, read-out: IC50 A549
Method: as §1
CNS(=O)(=O)Oc1cc(/C=C\c2cc(OC)c(OC)c(OC)c2)ccc1OC [Compound A1-4, (Z)-3,4,5-trimethoxy-4′-methoxy-3′-N-methylsulfamate stilbene] gave an IC50 of 0.269 µM. In the case of COc1ccc(/C=C\c2cc(OC)c(OC)c(OC)c2)cc1OS(=O)(=O)N(C)C [Compound A1-5, (Z)-3,4,5-trimethoxy-4′-methoxy-3′-N,N-dimethylsulfamate stilbene], the IC50 is reported as 0.987 µM. Work on COc1cc(/C=C\c2ccc(OC(F)F)c(OS(N)(=O)=O)c2)cc(OC)c1OC [Compound A3-1, (Z)-3,4,5-trimethoxy-4′-difluoromethoxy-3′-sulfamate stilbene] yielded an IC50 of 5.21 µM. COc1cc(/C=C/c2ccc(OC(F)F)c(OS(N)(=O)=O)c2)cc(OC)c1OC [Compound A3-2, (E)-3,4,5-trimethoxy-4′-difluoromethoxy-3′-sulfamate stilbene] showed an IC50 of 28.2 µM.

Tested on: human colon cancer cell HCT-116
Assay: CCK-8 cell proliferation inhibition, HCT-116
Format: cell-based
Conditions: Homo sapiens, HCT-116, 72 h, read-out: IC50 HTC116
Method: as §1
CNS(=O)(=O)Oc1cc(/C=C\c2cc(OC)c(OC)c(OC)c2)ccc1OC [Compound A1-4, (Z)-3,4,5-trimethoxy-4′-methoxy-3′-N-methylsulfamate stilbene] showed an IC50 of 16.8 µM. With COc1ccc(/C=C\c2cc(OC)c(OC)c(OC)c2)cc1OS(=O)(=O)N(C)C [Compound A1-5, (Z)-3,4,5-trimethoxy-4′-methoxy-3′-N,N-dimethylsulfamate stilbene] the IC50 was 0.366 µM. Work on COc1cc(/C=C\c2ccc(OC(F)F)c(OS(N)(=O)=O)c2)cc(OC)c1OC [Compound A3-1, (Z)-3,4,5-trimethoxy-4′-difluoromethoxy-3′-sulfamate stilbene] yielded an IC50 of 9.11 µM. For COc1cc(/C=C/c2ccc(OC(F)F)c(OS(N)(=O)=O)c2)cc(OC)c1OC [Compound A3-2, (E)-3,4,5-trimethoxy-4′-difluoromethoxy-3′-sulfamate stilbene], the IC50 was 12.8 µM.

Tested on: human liver cancer cell HepG2
Assay: CCK-8 cell proliferation inhibition, HepG2
Format: cell-based
Conditions: Homo sapiens, HepG2, 72 h, read-out: IC50 HepG2
Method: as §1
For CNS(=O)(=O)Oc1cc(/C=C\c2cc(OC)c(OC)c(OC)c2)ccc1OC [Compound A1-4, (Z)-3,4,5-trimethoxy-4′-methoxy-3′-N-methylsulfamate stilbene], the IC50 was 0.263 µM. In the case of COc1ccc(/C=C\c2cc(OC)c(OC)c(OC)c2)cc1OS(=O)(=O)N(C)C [Compound A1-5, (Z)-3,4,5-trimethoxy-4′-methoxy-3′-N,N-dimethylsulfamate stilbene], the IC50 is reported as 9.96 µM. For COc1cc(/C=C\c2ccc(OC(F)F)c(OS(N)(=O)=O)c2)cc(OC)c1OC [Compound A3-1, (Z)-3,4,5-trimethoxy-4′-difluoromethoxy-3′-sulfamate stilbene], the IC50 was 4.8 µM. In the case of COc1cc(/C=C/c2ccc(OC(F)F)c(OS(N)(=O)=O)c2)cc(OC)c1OC [Compound A3-2, (E)-3,4,5-trimethoxy-4′-difluoromethoxy-3′-sulfamate stilbene], the IC50 is reported as 5.54 µM.

Tested on: human gastric cancer cell MKN45
Assay: CCK-8 cell proliferation inhibition, MKN45
Format: cell-based
Conditions: MKN-45, 72 h, read-out: IC50 MKN45
Method: as §1
CNS(=O)(=O)Oc1cc(/C=C\c2cc(OC)c(OC)c(OC)c2)ccc1OC [Compound A1-4, (Z)-3,4,5-trimethoxy-4′-methoxy-3′-N-methylsulfamate stilbene] showed an IC50 of 0.369 µM. In the case of COc1ccc(/C=C\c2cc(OC)c(OC)c(OC)c2)cc1OS(=O)(=O)N(C)C [Compound A1-5, (Z)-3,4,5-trimethoxy-4′-methoxy-3′-N,N-dimethylsulfamate stilbene], the IC50 is reported as 7.14 µM. For COc1cc(/C=C\c2ccc(OC(F)F)c(OS(N)(=O)=O)c2)cc(OC)c1OC [Compound A3-1, (Z)-3,4,5-trimethoxy-4′-difluoromethoxy-3′-sulfamate stilbene], the IC50 was 9 µM. COc1cc(/C=C/c2ccc(OC(F)F)c(OS(N)(=O)=O)c2)cc(OC)c1OC [Compound A3-2, (E)-3,4,5-trimethoxy-4′-difluoromethoxy-3′-sulfamate stilbene] showed an IC50 of 9.24 µM.

Tested on: human gastric cancer cell MGC-803
Assay: CCK-8 cell proliferation inhibition, MGC-803
Format: cell-based
Conditions: MGC-803, 72 h, read-out: IC50 MGC803
Method: as §1
Work on CNS(=O)(=O)Oc1cc(/C=C\c2cc(OC)c(OC)c(OC)c2)ccc1OC [Compound A1-4, (Z)-3,4,5-trimethoxy-4′-methoxy-3′-N-methylsulfamate stilbene] yielded an IC50 of 5.05 µM. COc1ccc(/C=C\c2cc(OC)c(OC)c(OC)c2)cc1OS(=O)(=O)N(C)C [Compound A1-5, (Z)-3,4,5-trimethoxy-4′-methoxy-3′-N,N-dimethylsulfamate stilbene] showed an IC50 of 8.95 µM. Compound COc1cc(/C=C\c2ccc(OC(F)F)c(OS(N)(=O)=O)c2)cc(OC)c1OC [Compound A3-1, (Z)-3,4,5-trimethoxy-4′-difluoromethoxy-3′-sulfamate stilbene] has an IC50 of 12.5 µM. Work on COc1cc(/C=C/c2ccc(OC(F)F)c(OS(N)(=O)=O)c2)cc(OC)c1OC [Compound A3-2, (E)-3,4,5-trimethoxy-4′-difluoromethoxy-3′-sulfamate stilbene] yielded an IC50 of 13.8 µM.

Target: Arylsulfatase
Assay: Arylsulfatase activity assay in vitro
Format: biochemical
Conditions: p-nitrophenyl sulfate substrate, 405 nm; read-out: IC50 sulfatase
Method: Weigh an appropriate amount of the test compound and dissolve it in dimethyl sulfoxide. Dilute it with Tris-HCl buffer for 2, 5, 10, 20, 50, 100, 200, 500, 1000, 2000, 5000, and 10,000 times. Add another dilution gradient to the sample. Arylsulfatase and potassium p-nitrophenyl sulfate are directly dissolved in Tris-HCl buffer. 40 μL of the test compound, 50 μL of arylsulfatase and 50 μL of potassium p-nitrobenzene sulfate were added to a 96-well plate for reaction. A blank control without enzymes and a standard control without test compounds are used. The volume is made up with Tris-HCl buffer. 405 nm detection in the microplate reader, each sample is measured for 40 times, and the interval is 30 s. The representative time node within the time period with good linearity of the absorbance value are selected for data analysis. The measured absorbance value are subtracted from the background value of the blank control and the initial value when the reaction time are 0. For comparison, calculate the inhibition rate at different concentrations, and use the built-in forecast function of excel to predict the IC50 value.
COc1cc(/C=C\c2ccc(OC(F)F)c(OS(N)(=O)=O)c2)cc(OC)c1OC [Compound A3-1, (Z)-3,4,5-trimethoxy-4′-difluoromethoxy-3′-sulfamate stilbene] gave an IC50 of 4.64 µM. In the case of C[C@]12CC[C@@H]3c4ccc(OS(N)(=O)=O)cc4CC[C@H]3[C@@H]1CCC2=O [EMATE, 3-(sulfamoyloxy)-estr-1,3,5 (10)-triene-17-one, reference compound], the IC50 is reported as 5.01 µM.

Tested on: Tubulin
Assay: Tubulin polymerization activity test
Format: biochemical
Conditions: tubulin 4.8 mg/ml, 37° C., 340 nm; read-out: IC50 (Table 3, tubulin polymerization test)
Method: Tubulin (4.8 mg/ml) protein was mixed with the test compound in a PEM buffer (100 mM PIPES, 1 mM MgCl2 and 1 mM EGTA) containing 1 mM GTP and 5% glycerol. A SPECTRA MAX 190 (Molecular Device) spectrophotometer was used to monitor the microtubule polymerization at 37° C. by light scattering at 340 nm, and the microtubule polymerization was calculated from the absorbance value. Each sample was tested three times at ten different concentrations.
COc1ccc(/C=C\c2cc(OC)c(OC)c(OC)c2)cc1OS(=O)(=O)N(C)C [Compound A1-5, (Z)-3,4,5-trimethoxy-4′-methoxy-3′-N,N-dimethylsulfamate stilbene] gave an IC50 of 3.1 µM. Work on COc1cc(/C=C\c2ccc(OC(F)F)c(OS(N)(=O)=O)c2)cc(OC)c1OC [Compound A3-1, (Z)-3,4,5-trimethoxy-4′-difluoromethoxy-3′-sulfamate stilbene] yielded an IC50 of 1.8 µM. COc1cc(/C=C/c2ccc(OC(F)F)c(OS(N)(=O)=O)c2)cc(OC)c1OC [Compound A3-2, (E)-3,4,5-trimethoxy-4′-difluoromethoxy-3′-sulfamate stilbene] gave an IC50 of 12.5 µM. Work on C[C@]12CC[C@@H]3c4ccc(OS(N)(=O)=O)cc4CC[C@H]3[C@@H]1CCC2=O [EMATE, 3-(sulfamoyloxy)-estr-1,3,5 (10)-triene-17-one, reference compound] yielded an IC50 of 25.9 µM.

Tested on: not given
Assay: not given
Conditions: not given
CNS(=O)(=O)Oc1cc(/C=C\c2cc(OC)c(OC)c(OC)c2)ccc1OC [Compound A1-4, (Z)-3,4,5-trimethoxy-4′-methoxy-3′-N-methylsulfamate stilbene] showed a melting point of 118.4 to 121.6 °C. For COc1ccc(/C=C\c2cc(OC)c(OC)c(OC)c2)cc1OS(=O)(=O)N(C)C [Compound A1-5, (Z)-3,4,5-trimethoxy-4′-methoxy-3′-N,N-dimethylsulfamate stilbene], the melting point was 102.7 to 105.6 °C. In the case of COc1cc(/C=C\c2ccc(OC(F)F)c(OS(N)(=O)=O)c2)cc(OC)c1OC [Compound A3-1, (Z)-3,4,5-trimethoxy-4′-difluoromethoxy-3′-sulfamate stilbene], the melting point is reported as 161.6 to 162.9 °C. Work on COc1cc(/C=C/c2ccc(OC(F)F)c(OS(N)(=O)=O)c2)cc(OC)c1OC [Compound A3-2, (E)-3,4,5-trimethoxy-4′-difluoromethoxy-3′-sulfamate stilbene] yielded a melting point of 145.5 to 148.6 °C.
